Test results published in patent US20090246519A1 (priority 2008, published 2009).

Columns and labels:
Strains in all clusters = format: cell-based
[1] = test system: Cluster 1 strains 1A, 13B, 30B; format: cell-based, Rhodotorula mucilaginosa; conditions: highest level of tellurite tolerated by strains when grown on LB-Marine plates
[2] = test system: Cluster 2 strains 28A, 6A; format: cell-based, Bacillus sp.; conditions: highest level of tellurite tolerated by strains when grown on LB-Marine plates
Cluster 3 strain 14B = format: cell-based, Virgibacillus halodenitrificans

Row | Compound | Resistance of strains to oxyanion (Strains in all clusters) | Maximum [TeO3^2−] [1] [µg/mL] | Maximum [TeO3^2−] [2] [µg/mL] | Growth of strain 14B in the presence of tellurite (Cluster 3 strain 14B; 150 μg Na2TeO3 ml^−1, on plates and in liquid cultures) | Maximum [TeO3^2−] (Cluster 3 strain 14B; highest level of tellurite tolerated by strains when grown on LB-Marine plates, cluster 3) [µg/mL]
1 | O=[Se](=O)(O)O [selenate] | resistant |  |  |  | 
2 | O=[Te](=O)(O)O [tellurate] | resistant |  |  |  | 
3 | arsenate | resistant |  |  |  | 
4 | sodium tellurite [TeO3^2−] |  | 600 | 300 | grows poorly | 75 to 150
